Measurements reported in the supplement of paper PMC10307832.

Key:
Assay in all cases: relative viability (nuclei count vs DMSO), 5 days (fraction); higher = more cells survive
Ricolinostat = compound: O=C(CCCCCCNC(=O)c1cnc(N(c2ccccc2)c2ccccc2)nc1)NO [Ricolinostat]
Method in brief: (§1)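 In 1536-well plates, lung cancer cell lines rested overnight at 37 °C before five library-drug doses (not always all listed), √10 apart, were pinned onto vehicle-anchored plates. Nuclei were counted with MetaXpress from 4× Hoechst images taken after 5 days without medium change. Viability compares treated-well with vehicle-well nuclei as a median over plates, and plates needed control CV below 25% plus at least one doubling to pass.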

TGX 221 = compound: CC1=CN2C(=O)C=C(N=C2C(=C1)C(C)NC3=CC=CC=C3)N4CCOCC4 [TGX 221]
Method in brief: as §1

[1] = compound: C1=CC=C(C(=C1)C2=CC=C(C=C2)C3=CSC4=C3C(=C(C(=O)N4)C#N)O)O
Method in brief: as §1

Cell Line	relative viability (Ricolinostat; 0.08 µM)	relative viability (Ricolinostat; 0.253 µM)	relative viability (Ricolinostat; 0.8 µM)	relative viability (Ricolinostat; 2.53 µM)	relative viability (TGX 221; 0.08 µM)	relative viability (TGX 221; 0.253 µM)	relative viability (TGX 221; 0.8 µM)	relative viability (TGX 221; 2.53 µM)	relative viability (TGX 221; 8 µM)	relative viability ([1]; 0.08 µM)	relative viability ([1]; 0.253 µM)	relative viability ([1]; 0.8 µM)	relative viability ([1]; 2.53 µM)	relative viability ([1]; 8 µM)
NCI-H2342	0.768	0.912	0.916	1.05	0.912	0.997	0.947	1.01	0.945	0.971	1.15	0.926	0.953	0.795
EMC-BAC-2	0.887	0.93	0.83	0.484	0.958	0.926	0.908	0.977	0.913	0.957	0.897	0.876	0.927	0.893
IA-LM	0.657	0.924	0.797	0.777	0.883	0.96	1.07	0.981	0.966	0.725	1.45	1.04	1.15	0.655
A549	0.792	0.945	0.926	0.971	0.954	0.884	0.953	0.927	0.867	0.908	1.19	1.02	0.977	0.675
NCI-H3122	0.94	1.01	0.992	1.07	1	0.985	1.02	0.969	1.01	0.974	1.03	1.03	1.08	0.843
LC-2-ad	0.866	0.964	0.946	0.683	0.962	1.01	1.01	1.02	0.92	0.824	1.05	0.898	1.04	0.906
NCI-H1734	0.81	1.03	0.935	0.894	0.91	0.892	1	0.934	0.9	0.833	0.992	0.971	1.01	0.753
NCI-H1975	0.928	0.895	0.803	0.872	0.911	0.866	0.998	0.844	0.785	0.892	0.949	0.932	0.887	0.772
NCI-H1793		0.924	0.905	0.898	0.858	0.628	0.748	0.574	0.668	0.786	1.17	0.9	0.834	0.945
NCI-H1650	0.774	0.884	0.789	0.678	0.979	0.816	0.862	0.859	0.705	0.727	1.29	0.913	0.93	0.612
NCI-H1651	0.913	0.936	0.971	0.966	0.923	0.891	0.953	0.956	0.879	0.997	0.973	1.07	1	0.821
NCI-H1437	0.951	0.993	0.969	0.763	1.02	0.942	0.998	0.983	0.929	0.935	1.11	0.994	1.14	0.891
NCI-H1299	0.997	0.983	0.982	0.954	0.98	1.01	1.01	1.06	0.993	1.09	1.07	1.01	1.06	0.897
SK-MES-1	0.824	0.979	0.983	0.979	1.01	0.958	0.941	0.75	0.67	1.01	1.06	1.01	1.04	0.819
NCI-H647	0.745	0.903	0.867	0.712	0.856	0.809	0.889	0.738	0.621	0.825	1	0.903	0.892	0.707
LK-2	0.967	0.999	1	0.899	0.986	0.878	0.914	0.996	1.1	0.724	0.922	1.11	0.918	0.71
LU99A	0.877	0.926	0.865	0.641	0.859	0.857	0.896	0.89	0.981	0.984	0.905	0.95	0.89	0.911
NCI-H661	0.836	0.981	1.02	0.803	1.02	1.02	0.971	0.999	0.846	1.11	1.03	1.03	0.97	0.834
NCI-H520		1.05	1.01	0.861	0.809	0.797	0.741	0.692	0.656	0.808	0.901	1.07	1.04	0.777
HCC-78		1.03	0.8	0.637	0.769	0.856	0.785	0.722	0.76	0.85	1.23	1.15	0.966	0.832
NCI-H1666	0.963	0.948	0.986	0.904	1.01	0.955	0.946	0.97	0.933	1.02	1.3	1.03	0.998	0.873
EKVX	0.764	0.918	0.907	0.964	0.865	0.888	0.907	0.838	0.855	0.961	1.13	0.971	0.967	0.851
HARA	0.878	1	0.866	0.567	0.997	0.947	0.964	0.942	1.05	0.768	1.98	0.999	0.751	0.856
A-427	0.714	1.01	0.908	0.849	0.949	0.91	0.971	0.893	1	0.913	1.02	1.05	1.04	1
NCI-H2087	0.912	1.02	0.974	0.699	1.19	1.15	1.12	1	0.988	1.02	1.21	1.08	1.05	0.637
